Values belong to the compound of their own block, whether it stands above or below them.
Experiments:
[1] = test system: outpatients 65 years of age or older with major depressive disorder (MDD); experiment: Efficacy outcome measures (HDRS-17, GDS) in double-blind mirtazapine vs paroxetine study, stratified by 5HTTLPR genotype; type: in vivo, human; details: for HAMD-17 or GDS, differences among the three genotype groups: patients stratified by 5HTTLPR genotype (S/S, S/L, L/L), any time point
From the text: Genet. 8(3):193-195 (1998).

[2] = test system: outpatients 65 years of age or older with major depressive disorder (MDD); details: in vivo
From the text: (§1) The study group included 255 outpatients 65 years of age or older with major depressive disorder (MDD) who were randomized to mirtazapine or paroxetine in a double-blind design at 18 U.S. centers. Details of the study design and overall clinical outcomes have been previously described (Schatzberg et al., Am J Geriatr Psychiatry 10(5):541-550 (2002)). […] At baseline all patients scored above the age-adjusted 25th percentile on the Mini Mental State Exam (MMSE), and all had Hamilton Depression Rating Scale (HDRS-17) scores ≧18. Starting doses were 15 mg for mirtazapine and 20 mg for paroxetine. Dosage for both medications was increased to 30 mg after 14 days, with the option to increase to 45 mg of mirtazapine or 40 mg of paroxetine on subsequent visits. Exclusion criteria were clinically significant unstable medical illness, history of treatment resistance, principal psychiatric diagnoses other than MDD, use of other psychotropics, and electroconvulsive therapy (ECT) within the previous 6 months.
(§2) Genomic DNA was extracted from EDTA-treated frozen whole blood by using a Puregene Kit (Gentra Systems, Minneapolis). 5HTTLPR genotypes were determined by PCR and gel electrophoresis as described in Edenberg et al., Psychiatr. Genet. 8(3):193-195 (1998).
(§3) Plasma drug levels were obtained after 4 weeks of treatment as described (Murphy et al., Biol Psychiatry 54:665-673 (2003)). Efficacy outcome measures (determined at baseline and at day 7,14, 21, 28, 42, and 56) included the Hamilton Depression Rating Scale (HDRS-17) (Hamilton et al., Br J Soc Clin Psychol. 6(4):278-296 (1967)) and the Geriatric Depression Scale (GDS) (Yesavage et al., J. Psychiat. Res. 17:37-49 (1983)). Measures related to adverse events included Medication Compliance, Severity of Adverse Events, Time to Discontinuation of Treatment Regimen due to an adverse event, and number of discontinuations due to an adverse event. Statistical methods included analyses of covariance (adjusted for baseline scores), Cochran-Mantel-Haenszel statistics, and Kaplan-Meier survival analyses. […] Analyses were performed for the entire group and also with 20 ethnic minority patients omitted.

[3] = in vivo
From the text: as §1, §2, §3

frequency of discontinuation of treatment regimen, L/L genotype [2]: most frequent
plasma levels at day 28, differences among the genotype groups [3]: no significant differences
SMILES: CN1CCN2c3ncccc3Cc3ccccc3C2C1 (stereo not drawn) [mirtazapine]
GDS scores, S carriers vs others ([1]; after adjusting for baseline difference, any subsequent time point): not significantly different
HDRS scores, S allele carriers ([1]; day 14, less depressed, p<0.27): lower HDRS scores
HAMD-17 or GDS, differences among the three genotype groups [1]: no significant differences
adverse events associated with L/L genotype discontinuations [2]: drowsiness, dizziness, and anxiety
relationship between number of L alleles and discontinuation due to adverse events, Caucasian patients [2]: positive linear relationship
relationship between number of L alleles and probability of discontinuation due to adverse events [2]: positive linear relationship
severity of adverse events, L/L vs S/S genotype [2]: greater severity

frequency of discontinuation of treatment regimen, L/L genotype [2]: fewest
frequency of discontinuation of treatment regimen, S/L genotype [2]: intermediate frequency
frequency of discontinuation of treatment regimen, S/S genotype [2]: most frequent
subjects who discontinued treatment regimen, L/L and T/T genotypes [2]: none
SMILES: Fc1ccc([C@@H]2CCNC[C@H]2COc2ccc3c(c2)OCO3)cc1 [paroxetine]
HDRS, carriers of the S allele vs others ([1]; FIG. 2B): No differences
GDS scores, carriers of the S allele ([1]; days 7 (p=0.003) and 28 (p=0.04), adjusted for baseline body weight, higher = more depressed): significantly higher scores
HAMD-17 or GDS, differences among the three genotype groups [1]: no significant differences
subjects who discontinued treatment regimen due to adverse events, 5HTTLPR S/S and 5HT2A C/C genotypes ([2]; human): 7 of 10
adverse events associated with S/S discontinuations [2]: gastrointestinal complaints, fatigue, agitation, sweating, and dizziness
effects of 5HTTLPR and 5HT2A 102 T/C on discontinuation of treatment regimen due to adverse events [2]: significant effects
interaction term 5HTTLPR x 5HT2A 102 T/C on discontinuation due to adverse events [2]: not significant
relationship between number of S alleles and discontinuations due to adverse events, Caucasian patients [2]: positive linear relationship
relationship between number of S alleles and probability of discontinuation due to adverse events [2]: positive linear relationship
risk of discontinuation of the treatment regimen due to adverse events, S/L vs L/L genotype [2]: significantly greater risk
severity of adverse events, S/S vs L/L genotype [2]: greater severity

From patent US20050165115A1, “Methods and compositions for predicting compliance with an antidepressant treatment regimen” (priority 2003, published 2005)
